Test results: a melting point compilation (Tetko et al.; mined from patent text by program, amines drawn as free bases though some values may be those of a salt)

Row | Compound | melting point [°C]
1 | CC(=O)Oc1c(C)c(C)c2c(c1C)CC(C)(C(=O)Nc1cnc3c(C)cc(C)cc3c1-c1ccccc1Cl)O2 (centres undefined) | 259 to 261
2 | COC(=O)Cc1ccc2c(c1)C(=O)Cc1ccccc1C2 | 111 to 112
3 | CN(C)CCCOc1ccc2c(c1)SCC(=O)N2 | 120 to 121
4 | O=C1NCc2c1cc1ccc3c(c1c2-c1ccc(C(F)(F)F)cc1)OCO3 | 315 to 317
5 | CC(=O)Nc1ccc(OC2SCC(OC(C)=O)C(OC(C)=O)C2OC(C)=O)cc1 (centres undefined) | 166
6 | CC(CCCO)C1CCC2C3C(OCc4ccccc4)CC4CC(OC5CCCCO5)CCC4(C)C3CCC12C (centres undefined) | 52 to 55
7 | CC(C)n1nc(CC(=O)c2cccc(Cl)c2)ccc1=O | 85 to 86
8 | Cc1cc(C(C)(C)C)cc(C)c1SSc1c(C)cc(C(C)(C)C)cc1C | 127 to 128
9 | COCc1ccc(O)cc1 | 79 to 80
10 | CCC1(O)CC(=O)OCc2c1cc1n(c2=O)Cc2cc3ccc(F)cc3nc2-1 (centres undefined) | > 250
11 | O=C(N[C@H](Cc1cccc(Oc2ccccc2)c1)[C@@H](O)c1ccc(F)cc1)c1ccc(F)c2ccccc12 (racemic) | 120 to 121
12 | CN1c2ccccc2C(C)(C)C1CC#N (centres undefined) | 74 to 76
13 | O=C1C(=C(O)Cc2ccccc2)SC(=S)N1c1ccccc1 | 146 to 148
14 | Fc1cccc(F)c1-c1ncc(-c2ccc(Br)cc2)nn1 | 180 to 181
15 | O=C(/C=C/C=C/c1ccc(Br)cc1)NCCCC(=O)NO | 173 to 175
16 | CCn1c2ccccc2c2cc(C#N)ccc21 | 183 to 185
17 | Nc1ccc(S)c(C(F)(F)F)c1 | 35 to 36.5
18 | COc1ccc2[nH]c(S(=O)Cc3cc(N4CCOCC4)c(F)cn3)nc2c1 (centres undefined) | 109 to 111
19 | CCOc1ccc(CCN(C(=O)O)C(=O)[C@H](CCSC)NC(C)=O)cc1OCC | 85 to 90
20 | CC(=O)ONC(=N)c1ccc(-c2nc(C)c(C(=O)NC(C)C(O)(Cn3cncn3)c3ccc(F)cc3F)s2)cc1 (centres undefined) | 146 to 147
21 | Clc1c(-c2cnco2)[nH]c2ccccc12 | 131 to 134
22 | Cn1ccc2ccc(/C=C/CN3CCN(C4c5ccccc5CCc5ncccc54)CC3)cc21 (centres undefined) | 168 to 170
23 | CCOC(=O)c1[nH]c2c(c1O)CCCC2 | 94 to 95
24 | O=C1c2c(OCc3ccccc3)c(OCc3ccccc3)cc(OCc3ccccc3)c2-c2nn(CCNCCO)c3ccc(NCCNCCO)c1c23 | 186 to 188
25 | CC(=O)c1ccc(N(C2CC2)S(=O)(=O)c2cccc(C(=O)Nc3ccc(C#N)cc3)c2)cc1 | 185 to 186

Row | Compound | melting point [°C]
26 | COC(=O)Cn1c(=O)c2ccccc2n(CCCCCl)c1=O | 119 to 120
27 | Brc1ccc(C2=CCN(CCSCc3c[nH]c4ccccc34)CC2)cc1 | 166 to 167
28 | CCOC(=O)c1cc(=O)c2cccc(NC(=O)c3ccc4c(c3)CC(COCc3ccccc3)O4)c2o1 (centres undefined) | 166 to 168
29 | COc1ccc(C2CC(=O)N(C(N)=O)N2Cc2ccccc2)cc1OC1CCCC1 (centres undefined) | 148 to 149
30 | ClC1(c2ccccc2)c2ccccc2-c2ncncc21 (centres undefined) | 119 to 120
31 | CCCCCCCCCCCCCC(=O)NN(C)C | 63.5 to 64.5
32 | COn1cc(C(=O)O)c(=O)c2cc3cc(F)c(F)cc3nc21 | 325 to 327
33 | CCN1c2ncccc2C(=O)Nc2c(C)cc(-n3ccnc3)nc21 | 243 to 245
34 | CC(=O)NCCOc1ccc(-c2ccc(=O)n(Cc3ccc(Cl)cc3F)c2)cc1 | 153
35 | CN1C(=O)C2C3C=CC(CCC3)C2(c2ccc(Cl)c(Cl)c2)C1=O (centres undefined) | 110 to 115
36 | COc1cccc(Oc2ccccc2C(=O)O)c1 | 129 to 131
37 | CCOC(=O)CC1C(=O)N(CCc2c[nH]c3cc(C)ccc23)CCN1C(=O)c1ccccc1 (centres undefined) | 155
38 | CCN(CC)CCNC(=O)c1cc(Cl)c(N)cc1OCCS(=O)CC (centres undefined) | 92 to 94
39 | O=C(/C=C/c1cccc(Cl)c1)NC1CC1 | 112 to 113
40 | CN(C)CCn1c(=O)c2c3oc4ccccc4oc3c3[nH]c4ccc(O)cc4c3c2c1=O | > 360
41 | COc1cc2nc(CN(C)C)[nH]c(=O)c2cc1OC | 210 to 212
42 | CC(C)(C)c1ccc(C(=O)Nc2cn3cc(-c4ccsc4)ccc3n2)cc1 | 261 to 263
43 | COc1cc2c(c(OC(C)=O)c1)C1CCC3(C)C(=O)C(Br)CC3C1CC2 (centres undefined) | 188 to 190
44 | O=C(c1cc(F)ccc1C(F)(F)F)N1CCN(c2ccc(-c3ncc(-c4ccccc4)o3)nn2)CC1 | 122 to 125
45 | O=C1CCCN1C(=O)Oc1ccccc1 | 120 to 122
46 | CC=CCSc1cc(C(=O)O)cc(N)c1-c1ccccc1 | 102 to 104
47 | O=C(Nc1ccccc1S(=O)(=O)N1CCCCC1)N[C@@H](Cc1ccc(Oc2nccc3cnccc23)cc1)C(=O)O | 140
48 | O=c1c(NCCCN(Cc2ccc(F)cc2)c2ccccn2)c(NCc2ccncc2)c1=O | 198 to 201
49 | Cc1cc(-n2ccnc2)c2cccc(OCc3c(Cl)ccc(S(=O)(=O)N4CCC[C@H]4C(=O)N(C)C)c3Cl)c2n1 | 88
50 | C=CCc1c(O)c(Cl)cc(F)c1N1C(=O)C2=C(CCCC2)C1=O | 109 to 111

Row | Compound | melting point [°C]
51 | CC1SC(=O)NN=C1c1ccc2c(c1)C(=Nc1ccc(N(C)C)cc1)C(=O)N2 (centres undefined) | 261
52 | CC1(C)CC(OC(=O)CCCCCCCCC(=O)OC2CC(C)(C)N(OCc3ccccc3)C(C)(C)C2)CC(C)(C)N1OCc1ccccc1 | 58 to 61
53 | CC(C)Nc1nc2cc(Cl)c(Cl)cc2[nH]1 | 218 to 220
54 | COCCNC(=O)c1cc(F)cc(-c2cccc3c(C)c(Cc4cccc(C(F)(F)F)c4)sc23)c1 | 124 to 126
55 | CCCCCCCCCCCCCCCCCCNC(=O)NN | 100
56 | COC(=O)c1ccc(C=Cc2nc3ccccc3s2)cc1 | 168 to 169
57 | Cn1cnnc1S(=O)CC(=O)C12CC3CC(CC(C3)C1)C2 (centres undefined) | 124 to 127
58 | COc1ccc(NC(=O)Nc2ccc(Cl)c(Cl)c2)cc1NC(=S)Nc1cccc(C(=O)O)c1 | 209 to 211
59 | Cc1ccc(C(=O)c2ccncc2C(=O)O)cc1 | 230 to 231
60 | O=C(NN1CCCCC1)c1nn(-c2ccccc2-c2ccccc2Cl)c2c1C1CC3CC(C1)CC2C3 | 206
61 | O=C1NC(=O)c2c1c(-c1ccccc1)cc1[nH]c3ccccc3c21 | 262 to 264
62 | C=C1CCCCCCC(C(=O)OCC)NC1=O (centres undefined) | 91 to 92
63 | CCN(CC)CCNC(=O)c1cccc2cc3ccc(I)cc3nc12 | 80 to 82
64 | CNc1nonc1-c1nc2ccccc2n1CC(=O)c1ccc(Cl)cc1 | 210 to 214
65 | CCOC(=O)c1ccc(CCC(=O)CO)cc1 | 51 to 52
66 | Cc1cc(-n2ccnc2)c2cccc(OCc3c(Cl)ccc(S(=O)(=O)N4CCC[C@H]4C(=O)NCCN(C)C)c3Cl)c2n1 | 88
67 | CC(C)(C)C(NC(=O)c1ccc(Cl)cc1)Nc1c(Nc2cccc(F)c2)c(=O)c1=O (centres undefined) | 271 to 272
68 | COc1cc(Nc2c(C#N)cnc3ccc(Br)cc23)c(Cl)cc1Cl | 232 to 234
69 | O=P(O)(O)C1(P(=O)(O)O)CCN2C=CC=CC2=N1 | 80
70 | N#Cc1ccc(N2CCC(F)C2)c2ccsc12 (centres undefined) | 151 to 152
71 | O=C(c1cc2cc(O)ccc2[nH]1)C12CC3CC(CC(C3)C1)C2 | 197 to 199
72 | CCC(CC)n1c(=O)ccc2cnc(Nc3ccccc3)nc21 | 116 to 118
73 | O=C(c1ccncc1)c1ccc(Cl)c([N+](=O)[O-])c1 | 114 to 116
74 | CC(C)CCS(=O)(=O)NC(=O)/C=C/c1cc(C2CC2)nn1Cc1ccc(C(F)(F)F)cc1Cl | 145 to 147
75 | COc1ccc(C2=NOC(C)(c3nnc(S)n3N)C2)cc1OC1CCCC1 (centres undefined) | 228 to 229

Row | Compound | melting point [°C]
76 | CCc1cn2ccc(NC(=O)c3cc4cc(C(F)(F)F)cnc4n3Cc3cccc(F)c3)cc2n1 | 264 to 265
77 | CCN1CCN(c2cc(-c3ccc(O)cc3)c3c(n2)CCCCCC3)CC1 | 250 to 253
78 | C=C(C)C(=O)OCC(COC(=O)C(=C)C)Cc1ccc(-c2ccc(OC(=O)C(=C)C)cc2)cc1 | 49
79 | CN(C)C(=O)N1CCC(=NO)c2cc(F)ccc21 | 147 to 150
80 | CCOC(=O)CC(O)CC(O)C=Cc1c(-c2ccccc2)ccnc1C (centres undefined) | 85 to 86
81 | CCCNC(=O)c1cc(-c2ccc(OC)cc2)nn(CC2CCCC2)c1=O | 110
82 | O=C1OC2(CCN(C(=O)Nc3cnc(-c4ccccc4)cn3)CC2)c2cc(F)ccc21 | 222 to 224
83 | Cc1nc(NC(=O)N(C)C)nc(C)c1Cl | 127 to 129
84 | COc1cc(C=CC=C2SC(=O)NC2=O)ccc1OCc1coc(-c2ccccc2)n1 | 230 to 231
85 | O=c1c2cn[nH]c2nc2n1CCS2 | > 300
86 | O=C(NC(CO)CO)c1cnccc1C(F)(F)F | 155 to 156
87 | COc1ccc2cc([C@H](C)C(=O)OCCNC(=O)OC(C)(C)C)ccc2c1 | 82 to 84
88 | CN(C)CCCC(N)=S | 77
89 | O=S(=O)(C(=CNc1nccs1)S(=O)(=O)c1ccccc1)c1ccccc1 | 189 to 191
90 | CCCc1c(OCCCCCCc2ccc(C(=O)CCCC(=O)O)cc2CCC(=O)O)ccc2c1OCCC2=O | 136 to 139
91 | OCC1CN(Cc2ccccc2)CCc2c1[nH]c1ccccc21 (centres undefined) | 95
92 | O=C(CCCN1CCC(NC(=O)c2ccccc2)CC1)c1ccc(Cl)cc1 | 243 to 244
93 | CC(C)(C)c1ccc(-c2nnc(-c3ccc(C(=O)O)cc3[N+](=O)[O-])o2)cc1 | 233 to 235
94 | COCc1nc2c3c(ccn2c1C)[C@@H](O)[C@H](O)[C@@H](c1ccccc1)N3 | 102 to 104
95 | CC(C)NC(=O)c1nc(-c2cccc(Cl)c2)c(-c2ccc(=O)n(C(C)C)n2)s1 | 105 to 106
96 | N#Cc1ccc(CCc2ccc(CN3C(=O)c4ccccc4C3=O)cc2)cc1 | 194 to 197
97 | CCCCCCC(=O)Oc1ccc(-c2ccc(C#N)cc2)cc1 | 57.7 to 57.9
98 | Cn1nc(-c2c(F)cccc2Cl)nc1C(=O)c1ccc(Cl)cc1 | 108 to 111
99 | COc1ccc([C@@H]2CC(=O)N3C(=O)CC[C@H]23)cc1 (relative stereo) | 125 to 127
